Values of other authors in article PMC7439511 (Science Advances, 2020).

Test system: RACK7 (ZMYND8)

Substance	RACK7 binding to N-terminal tail of histone H3
H3K4me0: H3K4me0 (H3) peptide, amino acids 1 to 21	bind
H3K4me1: H3K4me1 peptide, amino acids 1 to 21	bind
